Active and inactive are the calls of the source. No rule for the calls is given here.
Tested on: CCRIS mutagenicity, Ames/micronucleus/aberration tests
Assay: CCRIS mutagenicity studies
[1] = Test System: AMES SALMONELLA TYPHIMURIUM, Strain/Indicator: TA97, Metabolic Activation: NONE, Method: PREINCUBATION
[2] = Test System: AMES SALMONELLA TYPHIMURIUM, Strain/Indicator: TA98, Metabolic Activation: HAMSTER, LIVER, S-9, AROCLOR 1254 (10 OR 30%), Method: PREINCUBATION
[3] = Test System: AMES SALMONELLA TYPHIMURIUM, Strain/Indicator: TA98, Metabolic Activation: NONE, Method: PREINCUBATION
[4] = Test System: AMES SALMONELLA TYPHIMURIUM, Strain/Indicator: TA98, Metabolic Activation: RAT, LIVER, S-9, AROCLOR 1254 (10 OR 30%), Method: PREINCUBATION
[5] = Test System: AMES SALMONELLA TYPHIMURIUM, Strain/Indicator: TA100, Metabolic Activation: HAMSTER, LIVER, S-9, AROCLOR 1254 (10 OR 30%), Method: PREINCUBATION
[6] = Test System: AMES SALMONELLA TYPHIMURIUM, Strain/Indicator: TA100, Metabolic Activation: NONE, Method: PREINCUBATION
[7] = Test System: AMES SALMONELLA TYPHIMURIUM, Strain/Indicator: TA100, Metabolic Activation: RAT, LIVER, S-9, AROCLOR 1254 (10 OR 30%), Method: PREINCUBATION
[8] = Test System: AMES SALMONELLA TYPHIMURIUM, Strain/Indicator: TA1535, Metabolic Activation: HAMSTER, LIVER, S-9, AROCLOR 1254 (10 OR 30%), Method: PREINCUBATION
[9] = Test System: AMES SALMONELLA TYPHIMURIUM, Strain/Indicator: TA1535, Metabolic Activation: NONE, Method: PREINCUBATION
[10] = Test System: AMES SALMONELLA TYPHIMURIUM, Strain/Indicator: TA1535, Metabolic Activation: RAT, LIVER, S-9, AROCLOR 1254 (10 OR 30%), Method: PREINCUBATION
[11] = Test System: AMES SALMONELLA TYPHIMURIUM, Strain/Indicator: TA100, Metabolic Activation: NONE, Method: STANDARD PLATE

## CCO
Test System: AMES SALMONELLA TYPHIMURIUM, Strain/Indicator: TA97, Metabolic Activation: HAMSTER, LIVER, S-9, AROCLOR 1254 (10%), Method: PREINCUBATION
  mutagenic call: inactive; negative
Test System: AMES SALMONELLA TYPHIMURIUM, Strain/Indicator: TA97, Metabolic Activation: HAMSTER, LIVER, S-9, AROCLOR 1254 (30%), Method: PREINCUBATION
  mutagenic call: inactive; negative
[1]
  mutagenic call: inactive; negative
Test System: AMES SALMONELLA TYPHIMURIUM, Strain/Indicator: TA97, Metabolic Activation: RAT, LIVER, S-9, AROCLOR 1254 (10%), Method: PREINCUBATION
  mutagenic call: inactive; negative
Test System: AMES SALMONELLA TYPHIMURIUM, Strain/Indicator: TA97, Metabolic Activation: RAT, LIVER, S-9, AROCLOR 1254 (30%), Method: PREINCUBATION
  mutagenic call: inactive; negative
[2]
  mutagenic call: inactive; negative
[3]
  mutagenic call: inactive; negative
[4]
  mutagenic call: inactive; negative
[5]
  mutagenic call: inactive; negative
[6]
  mutagenic call: inactive; negative
[7]
  mutagenic call: inactive; negative
Test System: AMES SALMONELLA TYPHIMURIUM, Strain/Indicator: TA104, Metabolic Activation: HAMSTER, LIVER, S-9, AROCLOR 1254 (10 OR 30%), Method: PREINCUBATION
  mutagenic call: inactive; negative
Test System: AMES SALMONELLA TYPHIMURIUM, Strain/Indicator: TA104, Metabolic Activation: NONE, Method: PREINCUBATION
  mutagenic call: inactive; negative
Test System: AMES SALMONELLA TYPHIMURIUM, Strain/Indicator: TA104, Metabolic Activation: RAT, LIVER, S-9, AROCLOR 1254 (10 OR 30%), Method: PREINCUBATION
  mutagenic call: inactive; negative
[8]
  mutagenic call: inactive; negative
[9]
  mutagenic call: inactive; negative
[10]
  mutagenic call: inactive; negative
Test System: MOUSE LYMPHOMA, Strain/Indicator: L5178Y (TK+/TK-), Metabolic Activation: NONE, Method: SUSPENSION/PLATE
  mutagenic call: inactive; negative
Test System: MOUSE LYMPHOMA, Strain/Indicator: L5178Y (TK+/TK-), Metabolic Activation: RAT, LIVER, S-9, AROCLOR 1254, Method: SUSPENSION/PLATE
  mutagenic call: inactive; negative

## FC(F)(F)C(F)(F)C(F)(F)C(F)(F)I
End Point: IN VITRO CHROMOSOMAL ABERRATIONS, Test System: HUMAN PERIPHERAL BLOOD LYMPHOCYTES, Metabolic Activation: NONE
  mutagenic call: inactive; negative
End Point: IN VITRO CHROMOSOMAL ABERRATIONS, Test System: HUMAN PERIPHERAL BLOOD LYMPHOCYTES, Metabolic Activation: RAT, LIVER, S-9, AROCLOR 1254
  mutagenic call: inactive; negative
Test System: AMES SALMONELLA TYPHIMURIUM, Strain/Indicator: TA98, Metabolic Activation: NONE
  mutagenic call: inactive; negative
Test System: AMES SALMONELLA TYPHIMURIUM, Strain/Indicator: TA98, Metabolic Activation: RAT, LIVER, S-9, AROCLOR 1254
  mutagenic call: inactive; negative
Test System: AMES SALMONELLA TYPHIMURIUM, Strain/Indicator: TA100, Metabolic Activation: NONE
  mutagenic call: inactive; negative
Test System: AMES SALMONELLA TYPHIMURIUM, Strain/Indicator: TA100, Metabolic Activation: RAT, LIVER, S-9, AROCLOR 1254
  mutagenic call: inactive; negative
Test System: AMES SALMONELLA TYPHIMURIUM, Strain/Indicator: TA1535, Metabolic Activation: NONE
  mutagenic call: inactive; negative
Test System: AMES SALMONELLA TYPHIMURIUM, Strain/Indicator: TA1535, Metabolic Activation: RAT, LIVER, S-9, AROCLOR 1254
  mutagenic call: inactive; negative
Test System: AMES SALMONELLA TYPHIMURIUM, Strain/Indicator: TA1537, Metabolic Activation: NONE
  mutagenic call: inactive; negative
Test System: AMES SALMONELLA TYPHIMURIUM, Strain/Indicator: TA1537, Metabolic Activation: RAT, LIVER, S-9, AROCLOR 1254
  mutagenic call: inactive; negative
Test System: E. COLI, Strain/Indicator: WP2UVRA, Metabolic Activation: NONE
  mutagenic call: inactive; negative
Test System: E. COLI, Strain/Indicator: WP2UVRA, Metabolic Activation: RAT, LIVER, S-9, AROCLOR 1254
  mutagenic call: inactive; negative

## CCCCN1C2c3ccccc3-c3ccccc3C21 (stereo not drawn)
[11]
  mutagenic call: active; positive
Test System: CHINESE HAMSTER V-79, Strain/Indicator: V-79/6-THIOGUANINE, Metabolic Activation: NONE, Method: STANDARD PLATE
  mutagenic call: inactive; negative

## COc1ccc(Cc2cnc(N)nc2N)cc1OC
Test System: AMES SALMONELLA TYPHIMURIUM, Strain/Indicator: TA98, Metabolic Activation: HAMSTER, LIVER, S-9, PHENOBARBITAL AND BETA-NAPHTHOFLAVONE, Method: PREINCUBATION
  mutagenic call: inactive; negative
[3]
  mutagenic call: inactive; negative
Test System: AMES SALMONELLA TYPHIMURIUM, Strain/Indicator: TA98, Metabolic Activation: RAT, LIVER, S-9, PHENOBARBITAL AND BETA-NAPHTHOFLAVONE, Method: PREINCUBATION
  mutagenic call: inactive; negative
Test System: AMES SALMONELLA TYPHIMURIUM, Strain/Indicator: TA100, Metabolic Activation: HAMSTER, LIVER, S-9, PHENOBARBITAL AND BETA-NAPHTHOFLAVONE, Method: PREINCUBATION
  mutagenic call: active; positive
[6]
  mutagenic call: inactive; negative
Test System: AMES SALMONELLA TYPHIMURIUM, Strain/Indicator: TA100, Metabolic Activation: RAT, LIVER, S-9, PHENOBARBITAL AND BETA-NAPHTHOFLAVONE, Method: PREINCUBATION
  mutagenic call: inactive; negative
Test System: E.COLI, Strain/Indicator: WP2UVRA/PKM101, Metabolic Activation: NONE, Method: PREINCUBATION
  mutagenic call: inactive; negative
Test System: E.COLI, Strain/Indicator: WP2UVRA/PKM101, Metabolic Activation: RAT LIVER S-9, PHENOBARBITAL AND 5,6-BENZOFLAVONE, Method: PREINCUBATION
  mutagenic call: inactive; negative

## CC(C)(C)OOC(C)(C)CCC(C)(C)OOC(C)(C)C
Test System: AMES SALMONELLA TYPHIMURIUM, Strain/Indicator: TA97, Metabolic Activation: HAMSTER, LIVER, S-9, AROCLOR 1254 (10 OR 30%), Method: PREINCUBATION
  mutagenic call: inactive; negative
[1]
  mutagenic call: inactive; negative
Test System: AMES SALMONELLA TYPHIMURIUM, Strain/Indicator: TA97, Metabolic Activation: RAT, LIVER, S-9, AROCLOR 1254 (10 OR 30%), Method: PREINCUBATION
  mutagenic call: inactive; negative
[2]
  mutagenic call: inactive; negative
[3]
  mutagenic call: inactive; negative
[4]
  mutagenic call: inactive; negative
[5]
  mutagenic call: inactive; negative
[6]
  mutagenic call: inactive; negative
[7]
  mutagenic call: inactive; negative
[8]
  mutagenic call: inactive; negative
[9]
  mutagenic call: inactive; negative
[10]
  mutagenic call: inactive; negative

## CCOC(=O)C[n+]1csc2ccccc21
Test System: AMES SALMONELLA TYPHIMURIUM, Strain/Indicator: TA98, Metabolic Activation: NONE, Method: STANDARD PLATE
  mutagenic call: inactive; negative
[11]
  mutagenic call: inactive; negative
Test System: AMES SALMONELLA TYPHIMURIUM, Strain/Indicator: TA1535, Metabolic Activation: NONE, Method: STANDARD PLATE
  mutagenic call: inactive; negative
Test System: E.COLI, Strain/Indicator: WP2, Metabolic Activation: NONE, Method: STANDARD PLATE
  mutagenic call: inactive; negative
Test System: E.COLI, Strain/Indicator: WP2 UVRA, Metabolic Activation: NONE, Method: STANDARD PLATE
  mutagenic call: inactive; negative
